For assay [1], the system named is mEPSCs in brain slices / cultured hippocampal neurons. To be noted: cultured hippocampal neurons APP17 250 nM, ref Rice et al., 2019; cited from earlier work. The source says: GBRs are composed of a GB1a or GB1b subunit with a GB2 subunit, which generates heterodimeric GB1a/2 and GB1b/2 receptors ([Pin and Bettler, 2016]). GB1a differs from GB1b by the presence of two N-terminal sushi domains (SD1/2). GB1a/2 and GB1b/2 receptors predominantly localize to pre- and postsynaptic sites, respectively ([Vigot et al., 2006]). APP and sAPP bind to SD1 of GB1a ([Schwenk et al., 2016]; [Dinamarca et al., 2019]; [Rice et al., 2019]). Synthetic APP peptides of 9 or 17 amino acid residues, termed APP9 and APP17, are sufficient for binding and inducing a stable conformation in SD ... || GB1a/2 receptors are abundant at axon terminals where they inhibit neurotransmitter release ([Vigot et al., 2006]). […] A GBR antagonist blocked the effect of APP17 on the mEPSC frequency, supporting a GBR-dependent mechanism.

For assay [2], the system named is native GBRs in mouse brain membranes. Kind of assay: [^35S]GTPγS binding in brain membrane preparations. A general note: Binding of GTPγS marks nucleotide exchange on a G protein.
The subject of assay [3] is mEPSCs of cultured hippocampal neurons. Kind of assay: mEPSC frequency in cultured hippocampal neurons. It counts as cell-based, mouse. To be noted: baclofen 30 µM, after APP17, 0.5 μM TTX. As to the method: (§1) GB1a/2 receptors are abundant at axon terminals where they inhibit neurotransmitter release ([Vigot et al., 2006]). […] A GBR antagonist blocked the effect of APP17 on the mEPSC frequency, supporting a GBR-dependent mechanism. […] We additionally studied whether APP17 at 250 nM influences eEPSC amplitudes in acute hippocampal slices. Postsynaptic GBR-activated K^+ currents were blocked with a Cs^+-based intracellular solution, which allowed to specifically monitor the activity of presynaptic GBRs.
(§2) Neuronal cultures and HEK293T cells were prepared as described ([Dinamarca et al., 2019]). Coverslips with hippocampal neurons (DIV 12–15) or HEK293T cells were transferred to a chamber containing a low-K^+ bath solution (in mM): 145 NaCl, 4 KCl, 5 HEPES, 5.5 D-glucose, 1 MgCl2, and 1.8 CaCl2 (pH 7.4 adjusted with NaOH). Recordings were performed at room temperature using borosilicate pipettes of 3–5 MΩ resistance tips, filled with K-gluconate-based pipette solution (in mM): 150 K-gluconate, 1.1 EGTA, 10 HEPES, 10 Tris-phosphocreatine, 0.3 NaGTP, and 4 MgATP (pH 7.2 adjusted with KOH). […] Evoked EPSCs were recorded at –60 mV with a Cs^+-based intracellular solution. […] We recorded mEPSCs in primary neuronal cultures established from embryonic (E15–17) murine hippocampus at DIV13–16 in the presence of 0.5 μM TTX at room temperature ([Dinamarca et al., 2019]). […]

The test system of assay [4] is GBR-activated K^+ currents in cultured hippocampal neurons. The experiment in a line: K^+ currents in cultured hippocampal neurons (patch-clamp). In kind it is cell-based, mouse. The settings on record: 5 µM, -70 mV. As for the experimental part: APP17 signaling through native GBRs may depend on protein-protein interactions that are not preserved in the membrane preparations used for the [^35S]GTPγS binding assay. Therefore, we tested whether APP17 influences GBR-mediated Gβγ signaling to K^+ channels in cultured hippocampal neurons using patch-clamp electrophysiology, which preserves the native environment of receptors ([Schuler et al., 2001]; [Vigot et al., 2006]). […] . Neuronal cultures and HEK293T cells were prepared as described ([Dinamarca et al., 2019]). Coverslips with hippocampal neurons (DIV 12–15) or HEK293T cells were transferred to a chamber containing a low-K^+ bath solution (in mM): 145 NaCl, 4 KCl, 5 HEPES, 5.5 D-glucose, 1 MgCl2, and 1.8 CaCl2 (pH 7.4 adjusted with NaOH). Recordings were performed at room temperature using borosilicate pipettes of 3–5 MΩ resistance tips, filled with K-gluconate-based pipette solution (in mM): 150 K-gluconate, 1.1 EGTA, 10 HEPES, 10 Tris-phosphocreatine, 0.3 NaGTP, and 4 MgATP (pH 7.2 adjusted with KOH). Upon achieving whole-cell access, cells were held in voltage-clamp mode at −70 mV (with no correction for liquid junction potential) and baclofen-induced K^+ currents were induced in a high-K^+ bath solution (in mM): 120 NaCl, 25 KCl, 5 HEPES, 5.5 D-glucose, 1 MgCl2, and 1.8 CaCl2 (pH 7.4 adjusted with NaOH). […] Schaffer collaterals were stimulated at 0.1 Hz with brief current pulses via bipolar Pt/Ir wires. Evoked EPSCs were recorded at –60 mV with a Cs^+-based intracellular solution. Baclofen and peptides were bath applied in standard ACSF at room temperature. We recorded mEPSCs in primary neuronal cultures established from embryonic (E15–17) murine hippocampus at DIV13–16 in the presence of 0.5 μM TTX at room temperature ([Dinamarca et al., 2019]). APP17 (250 nM) and (R)-baclofen (30 μM) were applied via superfusion. Template matching with pClamp 10 software (Molecular Devices) was used to detect individual mEPSCs.

Assay [5] has as its system spontaneous neuronal activity in the auditory cortex. Kind of assay: two-photon Ca^2+ imaging of auditory cortex in anesthetized mice. The settings on record: 5 µM perfused over cortex; peptides 60 min, baclofen 15 min.
Assay [6] concerns eEPSCs of CA1 pyramidal neurons. Kind of assay: eEPSC amplitudes in CA1 pyramidal neurons of acute hippocampal slices. Details: species or system mouse. The settings on record: APP17 250 nM or baclofen 20 µM, Cs^+-based intracellular solution. As for the experimental part:
as §1, §2

Setting [7] is: 1 μM APP17, best-fit, different curve for each data set.
The mark [8] stands for this setting: Global (shared) fit, Vehicle and 1 μM APP17, one curve for all data sets.
The mark [9] stands for this setting: Vehicle, best-fit, different curve for each data set.

Consider three molecules from paper PMC9917443 (eLife, 2023).

With `C[C@H](NC[C@H](O)CP(=O)(O)Cc1ccccc1)c1ccc(Cl)c(Cl)c1` [CGP55845], the “mEPSC frequency (in words)” value in assay [1] is “reduced the inhibitory effect of APP17 on the mEPSC frequency”.

Consider `NCCCC(=O)O` [GABA], for which, in assay [2] (setting [7]), the Bottom is recorded as 0.9821, the HillSlope is 0.6558, the Span turned out to be 0.4027 and the Top was 1.385. This molecule had a Basal in assay [2] (GABA curve fit, vehicle, n=9) of 0.99. The molecule also showed an EMax in assay [2] (GABA, vehicle, n=9) of 1.37. In assay [2] (setting [8]), this molecule returned a Bottom of 0.9874, a HillSlope of 0.6587, a Span of 0.3874 and a Top of 1.375. In assay [2] (setting [9]), this molecule returned a Bottom of 0.9919, a HillSlope of 0.6543, a Span of 0.3771 and a Top of 1.369.

As for `NCC(CC(=O)O)c1ccc(Cl)cc1` (stereo not shown) [baclofen], the “mEPSC frequency (in words)” value in assay [3] is listed as “significantly reduced mEPSC frequency”. Besides, the “K^+ currents evoked by compound alone (in words)” value in assay [4] is on record as “activation of K^+ channels by Gβγ”. For the same molecule, the “spontaneous Ca^2+ transients (in words)” value in assay [5] is listed as “reduced spontaneous Ca^2+ transients after 15 min of perfusion”. Moreover, in assay [6], the “eEPSC amplitude (in words)” value is on record as “able to reduce the amplitudes of eEPSCs”.
